Source: patent publication US5846942A, “Cholecystokinin antagonists, their preparation and therapeutic use” (Warner-Lambert Company, priority 1996, dated 1998)

biological target: T1, Central CCK Receptors (Mus musculus, UniProt P56481); assay: Binding to central CCK receptors, displacement of tritiated pentagastrin from cerebral cortical membranes of male CFLP mice; set-up: species or system mouse (male CFLP); settings: cerebral cortexes taken from male CFLP mice; 2 nM tritiated-pentagastrin
T1 construct: from tissue; host or cells: cerebral cortex membranes of male CFLP mice (30-40 g)
T1 sequence (P56481 1-453): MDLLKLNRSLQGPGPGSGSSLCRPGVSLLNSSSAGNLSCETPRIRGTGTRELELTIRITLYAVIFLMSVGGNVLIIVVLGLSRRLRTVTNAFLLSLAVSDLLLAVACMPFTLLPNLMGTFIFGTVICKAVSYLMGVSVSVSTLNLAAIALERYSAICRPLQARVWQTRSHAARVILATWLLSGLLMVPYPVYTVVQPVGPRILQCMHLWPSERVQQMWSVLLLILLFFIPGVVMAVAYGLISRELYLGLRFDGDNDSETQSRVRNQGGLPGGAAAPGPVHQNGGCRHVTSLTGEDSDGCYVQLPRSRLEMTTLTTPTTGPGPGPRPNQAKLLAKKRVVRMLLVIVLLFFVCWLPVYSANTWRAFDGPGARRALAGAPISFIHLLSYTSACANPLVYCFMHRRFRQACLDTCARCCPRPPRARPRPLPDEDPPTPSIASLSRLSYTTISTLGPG
Procedure: The biological activity of compounds of the present invention was evaluated employing an initial screening test which rapidly and accurately measured the binding of the tested compound to known CCK receptor sites. […] (See Hays et al, Neuropeptides 1:53-62, 1980; and Satuer et al, Science 208:1155-1156, 1980).
In this screening test, the cerebral cortices taken from male CFLP mice weighing between 30-40 g were dissected on ice, weighed, and homogenized in 10 volumes of 50 mM Tris-HCl buffer (pH 7.4 at 0°-4° C.). The resulting suspension was centrifuged, the supernate was discarded, and the pellet was washed by resuspension in Tris-HCl buffer followed by recentrifugation. The final pellet was resuspended in 20 volumes of […] Hepes buffer (pH 7.2 at 23° C.) containing 130 mM NaCl, […] KCl, […] MgCl2, […] EDTA, 5 mg/mL bovine albumin, and bacitracin (0.25 mg/mL).
In saturation studies, cerebral cortical membranes were incubated at 23° C. for 120 minutes in a final volume of 500 μL of Hepes incubation buffer (pH 7.2) together with […] tritiated-pentagastrin (Amersham International, England).
In the displacement experiments, membranes were incubated with a single concentration (2 nM) of ligand, together with increasing concentrations (10^-11 to […]) of competitive test compound. In each case, the nonspecific binding was defined as that persisting in the presence of the unlabeled octapeptide CCK26-33 (10^-6 M)
Following incubation, radioactivity bound to membranes was separated from that free in solution by rapid filtration through Whatman GF/B filters and washed three times with 4 mL of ice cold Tris-HCl buffer. Filters from samples incubated with tritiated-pentagastrin were placed in polyethylene vials with 4 mL of scintillation cocktail, and the radioactivity was estimated by liquid scintillation spectrometry (efficiency 47-52%).
Saturation curves for specific tritiated- pentagastrin binding to mouse cortical membranes were analyzed by the methods of Scatchard (Ann. New York Acad. Sci. 51:660-672, 1949, and Hill (J. Physiol. 40:IV-VIII, 1910), to provide estimates for the maximum number of binding sites (Bmax) and the equilibrium dissociation constant (Ka).
In displacement experiments, inhibition curves were analyzed by either logit-log plots or the iterative curve fitting computer program ALLFIT (DeLean, Munson and Redbard, 1978) to provide estimates of the IC50 and nH (apparent Hill coefficient) values).
The inhibition constant (Ki) of the test compound was then calculated according to the Cheng-Prusoff equation: [formula] where [L] is the concentration of radiolabel and Ka is the equilibrium dissociation constant.

SMILES	Ki [µM]
CC(=O)OC[C@H](Cc1ccccc1)NC[C@@](C)(Cc1c[nH]c2ccccc12)NC(=O)OC1C2CC3CC(C2)CC1C3 (relative stereo) [Example 7, [R-(R*,S*)]-β-[[2-(1H-indol-3-ylmethyl)-2-[[tricyclo-[3.3.1.1^3,7]dec-2-yloxvcarbonyl]amino]propyl]amino]-benzenepropanol acetate]	0.374
C[C@@](Cc1c[nH]c2ccccc12)(NC(=O)OC1C2CC3CC(C2)CC1C3)C(=O)NCCC(=O)N[C@H](CO)Cc1ccccc1 (relative stereo) [Example 24, Carbamic acid, [1-(1H-indol-3-ylmethyl)-2-[[3-[[1-hydroxymethyl)-2-iphenylethyl]amino]-3-oxopropyl]-amino]-1-methyl-2-oxoethyl]-, tricyclo[3.3.1.1^3,7]dec-2-ylester, [S-(R*,R*)]-]	1.1
O=C(N[C@@H](CN[C@H](CO)Cc1ccccc1)Cc1c[nH]c2ccccc12)OC1C2CC3CC(C2)CC1C3 (stereo partly drawn) [Example 1, Tricyclo[3.3.1.1^3,7]dec-2-yl[S-(R)]-[2-[[1 - (hydroxy-methyl)-2-phenylethyl]amino]-1-(1H-indol-3-ylmethyl)ethyl]carbamate]	11.5
O=C(N[C@H](CN[C@H](CO)Cc1ccccc1)Cc1c[nH]c2ccccc12)OC1C2CC3CC(C2)CC1C3 (stereo partly drawn) [Example 2]	1.12
CC(CNCC(O)c1ccccc1)(Cc1c[nH]c2ccccc12)NC(=O)OC1C2CC3CC(C2)CC1C3 (stereo not drawn) [Example 5, Tricyclo[3.3.1.1^3,7]dec-2-yl [1-[(2-hydroxy-2-phenyl-ethyl)amino]-3-(1H-indol-3-yl)-2-methylprop-2-yl]-carbamate]	0.22
C[C@](CN[C@H](CO)Cc1ccccc1)(Cc1c[nH]c2ccccc12)NC(=O)OC1C2CC3CC(C2)CC1C3 (stereo partly drawn) [Example 6, Tricyclo[3.3.1.1^3,7]dec-2-yl[R-(R*,S*)]-1-[[1(hydroxy-methyl)-2-phenylethyl]amino]-3-(1H-indol-3-yl)-2-methylprop-2-ylcarbamate]	0.2
CC(=O)N(C[C@@](C)(Cc1c[nH]c2ccccc12)NC(=O)OC1C2CC3CC(C2)CC1C3)[C@H](CO)Cc1ccccc1 (stereo partly drawn) [Example 8, Tricyclo[3.3.1.1^3,7]dec-2-yl[R-(R*,S*)]-[acetyl[1-(hydroxymethyl)-2-phenylethyl]amino]-2-(1H-indol-3-ylmethyl)prop-2-ylcarbamate]	0.318
C[C@](Cc1c[nH]c2ccccc12)(NC(=O)OC1C2CC3CC(C2)CC1C3)C(=S)NCCc1ccccc1 (stereo partly drawn) [Example 9]	0.808
C[C@](CC(=O)OCc1ccccc1)(Cc1c[nH]c2ccccc12)NC(=O)OC1C2CC3CC(C2)CC1C3 (stereo partly drawn) [Example 17]	0.017
C[C@](CNC(=O)CCCc1ccccc1)(Cc1c[nH]c2ccccc12)NC(=O)OC1C2CC3CC(C2)CC1C3 (stereo partly drawn) [Example 19, Carbamic acid, [1-(1H-indol-3-ylmethyl)-1-methyl-2-[(1-oxo-4-phenylbutyl)amino]ethyl]-, tricyclo-[3.3.1.1^3,7]dec-2-yl ester (R)-]	0.353
C[C@](CNC(=O)c1ccccc1)(Cc1c[nH]c2ccccc12)NC(=O)OC1C2CC3CC(C2)CC1C3 (stereo partly drawn) [Example 20, Carbamic acid, [2-(benzoylamino)-1-(1H-indol-3-ylmethyl)-1-methylethyl]-, tricyclo[3.3.1.1^3,7]dec-2-yl ester, (R)-]	0.493
C[C@](CNC(=O)CCc1ccccc1)(Cc1c[nH]c2ccccc12)NC(=O)OC1C2CC3CC(C2)CC1C3 (stereo partly drawn) [Example 21]	> 0.1
C[C@](CNC(=O)Cc1ccccc1)(Cc1c[nH]c2ccccc12)NC(=O)OC1C2CC3CC(C2)CC1C3 (stereo partly drawn) [Example 22, Carbamic acid, [1-(1H-indol-3-ylmethyl)-1-methyl-2-[(2-phenylacetyl)amino]ethyl]-, tricyclo[3.3.1.1^3,7]-dec-2-yl ester. (R)-]	0.704
C[C@](Cc1c[nH]c2ccccc12)(NC(=O)OC1C2CC3CC(C2)CC1C3)C(=O)NCCC(=O)N[C@H](CO)Cc1ccccc1 (stereo partly drawn) [Example 23, Carbamic acid, [2-[[3-[[1-(hydroxymethyl)-2-phenyl-ethyl]amino]-3-oxopropyl]amino]-1-(1H-indol-3-ylmethyl)-1-methyl-2-oxoethyl]-, tricyclo-[3.3.1.1^3,7]dec-2-vl ester. [R-(R*.S*)]-]	0.8
C[C@](Cc1c[nH]c2ccccc12)(NC(=O)OC1C2CC3CC(C2)CC1C3)C(=O)NCCC(=O)N[C@H](Cc1ccccc1)C(N)=O (stereo partly drawn) [Example 25, D-Phenylalanamide, α-methyl-N-[(tricyclo[3.3.1.1^3,7]-dec-2-yloxv)carbonyl]-D-tryotophyl-β-alanyl-]	0.55
C[C@](Cc1c[nH]c2ccccc12)(NC(=O)OC1C2CC3CC(C2)CC1C3)C(=O)NCCC(=O)N[C@@H](Cc1ccccc1)C(N)=O (stereo partly drawn) [Example 26, L-Phenylalaninamide, α-methyl-N-[(tricyclo [3.3.1.1^3,7]-dec-2-yloxy)carbonyl]-D-tryptophvl-β-alanyl-]	0.092
C[C@@](Cc1c[nH]c2ccccc12)(NC(=O)OC1C2CC3CC(C2)CC1C3)C(=O)NCCC(=O)N[C@@H](Cc1ccccc1)C(N)=O (stereo partly drawn) [Example 27, L-Phenylalaninamide α-methyl-N-[(tricyclo[3.3.1.1^3,7]-dec-2-yloxy)carbonyl]-L-tryptophy-β-alanyl-]	0.91
C[C@@](Cc1c[nH]c2ccccc12)(NC(=O)OC1C2CC3CC(C2)CC1C3)C(=O)NCCC(=O)N[C@H](Cc1ccccc1)C(N)=O (stereo partly drawn) [Example 28]	1.4
COC(=O)[C@@H](Cc1ccccc1)NC(=O)CCNC(=O)[C@@](C)(Cc1c[nH]c2ccccc12)NC(=O)OC1C2CC3CC(C2)CC1C3 (stereo partly drawn) [Example 29, 12-Oxa-2,5,9-triazatridecanoic acid, 3-(1H-indol-3-ylmethyl)-3-methyl-4.8.11-trioxo-10-(phenvlmethyl)-, tricyclo[3.3.1.1^3,7]dec-2-vl ester, [R-(R*,R*)]-]	0.24
C[C@](Cc1c[nH]c2ccccc12)(NC(=O)OC1C2CC3CC(C2)CC1C3)C(=O)NCCC(=O)N[C@@H](Cc1ccccc1)C(=O)OCc1ccccc1 (stereo partly drawn) [Example 30, L-Phenylalanine,N-[N-[α-methyl-N-[(tricyclo[3.3.1.1^3,7]dec-2-yloxy)carbonyl]-d-tryotoohyl]-β-alanyl]-phenylmethyl ester]	> 10
C[C@@](Cc1c[nH]c2ccccc12)(NC(=O)OC1C2CC3CC(C2)CC1C3)C(=O)NCCC(=O)N[C@@H](Cc1ccccc1)C(=O)OCc1ccccc1 (stereo partly drawn) [Example 31, Propanoic acid, 2-[[3-[[3-(1H-indol-3-yl)-2-methyl-1-oxo-2-[[(tricyclo[3.3.1.1^3,7]dec-2-yloxy)carbonyl]amino]propyl]amino]-1-oxopropyl]-amino]-3-phenyl-, phenylmethyl ester, [S-(R*,R*)]-]	1.2
C[C@](Cc1c[nH]c2ccccc12)(NC(=O)OC1C2CC3CC(C2)CC1C3)C(=O)NCCC(=O)N[C@H](Cc1ccccc1)C(=O)O (stereo partly drawn) [Example 32, D-Phenylalanine, N-[N-[α-methyl-N-[(tricyclo-[3.3.1.1^3,7]dec-2-yloxy)carbonyl]-D-tryptophyl]-β-alanyl]-]	0.103
C[C@](Cc1c[nH]c2ccccc12)(NC(=O)OC1C2CC3CC(C2)CC1C3)C(=O)NCCC(=O)N[C@@H](Cc1ccccc1)C(=O)O (stereo partly drawn) [Example 33, S-Phenylalanine N-[N-[α-methyl-N-[(tricyclo-[3.3.1.1^3,7]dec-2-yloxy)carbonyl]-R-tryptophyl]-β-alanyl]]	0.022
C[C@@](Cc1c[nH]c2ccccc12)(NC(=O)OC1C2CC3CC(C2)CC1C3)C(=O)NCCC(=O)N[C@@H](Cc1ccccc1)C(=O)O (stereo partly drawn) [Example 34, L-Phenylalanine, N-[N-[α-methyl-N-[(tricyclo-[3.3.1.1^3,7]dec-2-yloxy)carbonyl]-L-tryptophyl]-β-alanyl]-]	0.56
